Laboratory results taken from patent publication US6624140B1, “Synthetic peptides with antimicrobial and endotoxin neutralizing properties for management of the sepsis syndrome” (Academisch Ziekenhuis Bij de Universiteit van Amsterdam …, priority 1997, dated 2003).
No end group written: not given here.

Key:
TNF-α production = assay: TNF-α in whole blood ex vivo after pre-incubation of LPS with peptide; assay type: cell-based, human; conditions: 1 to 10 μg/ml pre-incubated with 1 ng/ml LPS, even at lowest concentration 1 μg/ml, 4 h at 37° C.
Protocol: FIG. 11. Effect of pre-incubation of E. coli 0111:B4 LPS with synthetic peptides or Polymyxin B on TNF-α levels in whole blood ex vivo. The indicated amounts of synthetic, control peptides or PmB were pre-incubated with E. coli 0111:B4 LPS at 1 ng/ml for […] at 23° C., added to whole blood containing heparin at 2 I.U/ml and the TNF-α concentrations determined after incubation for 4 h at 37° C. Each value is the mean of triplicate experiments. Controls only contained LPS.
In addition, the LPS-neutralizing activity of selected synthetic peptides of the invention were compared in a more complex environment of whole blood ex vivo to determine the effect of physiological concentrations of blood components such as plasma proteins, blood cells etc. on the detoxification efficacy. In pre-incubation experiments, concentrations of synthetic peptides, control peptide or PmB from 1 to 10 μg/ml were pre-incubated with 1 ng/ml E. coli 0111:B4 LPS in pyrogen-free saline for 30 min at 23° C., added to venous blood containing heparin at 2 I.U/ml as anti-coagulant and incubated for 4 h at 37° C. TNF-α concentrations were determined in appropriately diluted cell-free supernatants as described before.

[1] = test system: Escherichia coli serotype 0111:B4; assay: Bactericidal activity in liquid culture, E. coli 0111:B4; assay type: cell-based; conditions: for effect on cell-density of Gram-negative bacterial cultures: in words; for % bacteria killed: 10^7 E. coli 0111:B4 bacteria/ml LB medium at 37° C., concentration effective dose 3 (M^−6)
Protocol: FIGS. 1A and 1B. The effect of synthetic peptides on the survival of E. coli 0111:B4 (panel A) or S. aureus (panel B). Logarithmically growing bacterial cells at a density of 10^7 cells/ml in Luria-Bertani (LB) medium were incubated with synthetic peptides at concentrations of 3, 5 and 7 μg/ml (1, 2 and 3 μM) at 37° C. for 1 h and the residual cell density expressed as a percentage of the value obtained from bacterial cultures without added peptides.
A peptide encompassing a selected LPS-binding domain from a well characterized human antiendotoxin protein, known as bactericidal/permeability increasing protein (BPI), from amino acids 85 to 102, denoted as BPI(85-102), was included for a direct comparison of the efficacy of the endotoxin-binding domain of a naturally occurring protein and the synthetic peptides of the invention. The amino acid sequence of the BPI(85-102) peptide is:
The BPI(85-102) reference peptide was synthesized as previously described for peptides of the invention and provided with a C-terminal Cys residue for the purpose of biotinylation as previously described. […] Incubation of various concentrations of the synthetic peptides according to the invention for a limited time period on the survival of both types of bacteria again illustrated their potent anti-microbial activity as opposed to that of the BPI(85-102) peptide (FIG. 1) with the sequence corresponding to that of the potential LPS binding domain of the native BPI protein. This is indicative of a broad specificity of the synthetic peptides, in keeping with the general bactericidal properties of this class of linear amphipathic α-helical peptides. […] The B2 residue in the N-terminal repetitive sequence element in each instance, instead of an aromatic amino acid residue, as specified by the formula of the invention, was replaced with an Ala residue and the hydrophobic (C2)n element made hydrophilic by substitution with Lys and Cys residues.

[2] = test system: IL-6 production by endotoxin; assay: IL-6 production in diluted whole blood, simultaneous addition of LPS and peptide; assay type: cell-based, human; conditions: LPS 1 ng/ml; concentrations as low as 1 μM; control even at 4-fold higher concentration; heparin 100 I.U/ml
Protocol: FIG. 9. Effect of simultaneous addition of E. coli 0111:B4 LPS and synthetic peptides on IL-6 production in whole blood diluted 1 in 10. Synthetic peptides BP1 or BP2 or the control peptide BPI(85-102) at the concentrations indicated, were added together with E. coli 0111:B4 LPS at 1 ng/ml to diluted whole blood containing heparin at 100 I.U/ml. IL-6 concentration was determined after incubation for 16 h at 37° C. Each value is the mean of triplicate experiments. Controls contained no added peptide.
The endotoxin neutralizing activities of the synthetic peptides of the invention were evaluated by investigating the effect on LPS-stimulated release of the pro-inflammatory cytokines, tumor necrosis factor alpha (TNF-α), interleukin-6 (IL-6) or interleukin-8 (IL-8) in a well characterized in vitro human whole blood bioassay system. In one series of experiments, dilutions of E. coli 0111:B4 LPS from 0.2 to 1 ng/ml were pre-incubated with synthetic peptides at 10 μg/ml concentrations in RPMI medium for 30 min at 20° C. and added to diluted whole blood. Cytokine concentrations in the supernatants were determined after further incubation for 16 h at 37° C. in the presence of 5% CO2 by specific and sensitive ELISA kits (CLB, Amsterdam, The Netherlands). In another series of experiments, the effects of synthetic peptides at concentrations of 2,5, 5 and 10 μg/ml on IL-6 induction by 1 ng/ml 0111:B4 LPS was examined after simultaneous addition of synthetic peptide and LPS to diluted whole blood. […] The control peptide BPI(85-102) was ineffective in reducing cytokine production under these conditions even at a 4-fold higher concentration. This probably reflects the differences in binding affinity for Lipid A of BP1 and BP2 compared with the BPI(85-102) peptide of approximately 5 and 10-fold, respectively. An additional factor which may have influenced binding of the control peptide to endotoxin is the presence of heparin employed as an anti-coagulant at a concentration of 100 I.U/ml in the assay system. […]

Substance | inhibition of TNF-α production (TNF-α production) | effect on cell-density of Gram-negative bacterial cultures [1] | inhibition of IL-6 production [2] | % bacteria killed [1]
GKWKLFKKAFKKFLKILAC-OH [BP2, Gly-Lys-Trp-Lys-Leu-Phe-Lys-Lys-Ala-Phe-Lys-Lys-Phe-Leu-Lys-Ile-Leu-Ala-Cys] | almost complete inhibition | dose-dependent reduction | completely inhibiting | 
GRLRKKWKAFKKFLKILAC [BP1] | almost complete inhibition | dose-dependent reduction | completely inhibiting | 88%
Ile-Lys-Ile-Ser-Gly-Lys-Trp-Lys-Ala-Gin-Lys-Arg-Phe-Leu-Lys-Met-Ser-Gly-(Cys) (IKISGKWKAQKRFLKMSGC; listed as Homo sapiens) [BPI(85-102), reference compound] | almost complete inhibition | slight effect | ineffective | 31%
